One data set relates to HCT116 PARP-1−/− cells. Description: cell viability, resazurin reduction assay, HCT116 PARP-1-/-. Particulars: for IC50: read-out: IC50-values HCT116 PARP1−/−; for higher sensitivity of HCT116 PARP-1−/− than PARP-1+/+: from IC50 values of Table 1. A general note: Alamar Blue is a resazurin reagent that responds to reducing activity.
In a further data set the test system is HCT116 BRCA2−/− cells. Description: cell viability, resazurin reduction assay, HCT116 BRCA2-/-. Particulars: for IC50: read-out: IC50-values HCT116 BRCA2−/−.
A further data set has as its system Caco-2 cells. Description: cell viability, resazurin reduction assay, Caco-2. Particulars: for IC50: Homo sapiens, read-out: IC50-values Caco-2.
For the next data set, the system named is HCT116 WT cells. Description: cell viability, resazurin reduction assay, HCT116 WT. Particulars: for IC50: read-out: IC50-values HCT116 WT.
For another data set, the system named is DLD-1 ATRs/s cells. Put plainly: cell viability, resazurin reduction assay, DLD-1 ATRs/s. The note with it: for IC50: read-out: IC50-values DLD-1 ATRs/s.
The next data set relates to HCT116 PARP-1+/+ cells. Put plainly: cell viability, resazurin reduction assay, HCT116 PARP-1+/+. Particulars: for IC50: read-out: IC50-values HCT116 PARP1+/+.
Another data set deals with DLD-1 WT cells. Put plainly: cell viability, resazurin reduction assay, DLD-1 WT. Particulars: for IC50: read-out: IC50-values DLD-1 WT.
Data set [1] deals with human colonic epithelial cells (HCEC). Description: cell viability, resazurin reduction assay, HCEC. The note with it: 72 h; for IC50: read-out: IC50-values HCEC.
Experimental: (§1) To assess the cytotoxicity of newly developed PARP inhibitors, cells were cultivated in translucent 96-well plates overnight and treated with PARP inhibitors or cytostatic drugs for 72 h. For the assessment of synergistic activity, cells were pretreated with the inhibitors for 2 h, before the inhibitor or cytostatic drug was added. Cell viability was assessed by the resazurin reduction assay (RRA) as described previously [41], and fluorescence was measured using a Spark® Multi-well reader (Tecan, Crailsheim, Germany). IC50 values were calculated using GraphPad Prism 9.0 software (GraphPad Software Inc., Boston, MA, USA). To this end, concentrations were transformed into the log scale, plotted against the cell viability and the curve was fitted by nonlinear regression with variable slope, providing the IC50 values.
Data set [2] concerns γH2AX formation in HCT116 WT cells. Description: γH2AX Western blot in HCT116 WT cells. Particulars: X17613 50 µM or IT 0.25 µM, 24 h. On the technique in general: In western blotting, separated proteins are transferred to a membrane and probed.
Experimental: (§2) Quantification of chromatin-trapped PARP-1 was performed as described elsewhere [42]. Briefly, HCT116 cells were harvested, and pellets were lysed in buffer containing 150 mM KCl, 2.5 mM MgCl2, 50 mM HEPES pH 7.8, 5 mM EDTA pH 8, 3 mM dithiothreitol (DTT), 10% glycerol, 0.5% Triton X-100, and freshly added protease inhibitor cocktail (Roche) for 15 min on ice. The chromatin-bound protein fraction was isolated by centrifugation at 4 °C for 15 min and 16.000× g. After transferring the soluble fraction, the chromatin-containing pellet was washed twice in lysis buffer and sonicated for 3 min. […] The proteins of interest were detected using a c300 chemiluminescence imager (Azure Biosystems, Dublin, CA, USA). […] The signal intensity (e.g., PARP-1 or γH2AX) of each lane was quantified and subsequently normalized to the respective loading control as indicated in the figure legends, which was analyzed in each experiment. […]
The subject of data set [3] is γH2AX formation in HCT116 BRCA2−/− cells. Description: γH2AX Western blot in HCT116 BRCA2-/- cells. The note with it: IT 0.25 µM, 24 h, compared to WT.
Experimental: as §2
The target of data set [4] is T1, PARP-1 (Homo sapiens, UniProt P09874). Description: chemiluminescence-based PARP-1 assay kit (recombinant enzyme). Particulars: IC50 PARP-1 screening assay kit, recombinant PARP-1, 1 h RT, n = 2.
Text: Twelve compounds were screened regarding their ability to inhibit PARP-1 enzyme activity in vitro. Therefore, we utilized a chemiluminescence-based PARP-1 assay kit (BPS Bioscience, San Diego, CA, USA) and performed two independent experiments according to the manufacturer’s instructions. Briefly, non-transparent 96-well plates were coated with histones overnight. […] After adding activated DNA and biotinylated NAD^+, the ADP-ribosylation reaction was initiated by the addition of PARP-1 enzyme and incubated at RT for 1 h. Quantification of biotinylated PAR was conducted by using Streptavidin–HRP and subsequent ECL-based detection of chemiluminescence, applying a Spark® multiplate reader (Tecan, Crailsheim, Germany).
Data set [5] addresses T1, PARP-1. Put plainly: chromatin retention assay (PARP-1 trapping) in Caco-2 cells. Particulars: Caco-2, MMS 1 mM 1 h with inhibitor.
Experimental: as §2
Data set [6] concerns the target T1, PARP-1. Description: chromatin retention assay (PARP-1 trapping) in HCT116 cells. Particulars: HCT116, MMS 1 mM 1 h with inhibitor.
Experimental: as §2
In data set [7] the test system is H2O2-induced PAR formation (PARP-1 activity) in HCT116 cells. Put plainly: PAR immunofluorescence: H2O2-induced PAR formation in HCT116 cells. Type of data set: cell-based, human. The note with it: for IC50: Homo sapiens, HCT-116, 2 h pretreatment, 1 mM H2O2 5 min, unit inferred, read-out: IC50 PAR formation in HCT116 cells (Figure A3A); for PAR signal: concentration of 100 nM; for PAR signal / PAR formation: H2O2-induced; for PAR formation: 10 µM / highest concentration. The protocol: Cells lines were re-authenticated by p53, PARP-1, ATR, and BRCA2 immunoblotting, by their characteristic differential response to genotoxic agents and their typical cell morphology. HCT116, HCT116 BRCA2^−/−, DLD-1 ATR^+/+ and DLD-1 ATR^s/s cells were maintained in DMEM, whereas HCT116 PARP-1^+/+ and HCT116 PARP-1^−/− cells were maintained in RPMI1640 containing 10% FCS and 1% penicillin/streptomycin in a humidified atmosphere at 37 °C and 5% CO2. Caco-2 cells were cultured in MEM with 10% FCS, 1% penicillin/streptomycin, and nonessential amino acids. […] The media and supplements were obtained from PAN-Biotech (Aidenbach, Germany) and Thermo Fisher Scientific (Darmstadt, Germany). Cell culture was frequently tested for contamination with mycoplasma by PCR using the Venor® GeM Classic kit (Minerva Biolabs, Berlin, Germany) and immunofluorescence microscopy with nuclear staining. […] Cells were exposed for 1 h for the quantification of PARP-1 trapping or 2 h for assessing the inhibitory potential by confocal fluorescence microscopy. […] If the PARPi treatment was conducted in combination with cytostatic drugs for 24 h (γH2AX Western blot analysis) or 72 h (cytotoxicity testing), the PARPi was added 2 h prior.
The activity of potential PARP inhibitors was tested in a cell model using immunofluorescence-based detection of PAR essentially as reported previously. HCT116 cells were seeded in Ibidi 12-well chamber slides and cultivated until they reached 70% confluence. Induction of PARylation was achieved by adding 1 mM H2O2 in PBS/1 mM MgCl2 for 5 min at 37 °C. Cells were washed with PBS/1 mM MgCl2 and fixed by adding 4% PFA at RT. After 20 min, cells were washed with PBS/100 mM glycine for 1 min and permeabilized with PBS/0.3% Triton X-100 for 3 min. Blocking of the cells was conducted by adding PBS/0.05% Tween containing 5% powdered milk for 1 h at RT. […] Cells were washed and an Alexa488-coupled secondary antibody was added for 1 h at RT. The slides were mounted with VectaShield containing DAPI and analyzed by confocal microscopy using a Zeiss Axio Observer 7 microscope (Oberkochen, Germany) equipped with a 63× oil objective (Plan-Apochromat 63×/1.40 DIC M27) and a LSM900 confocal laser scanner (Zeiss, Oberkochen, Germany). Images were analyzed using Zeiss Zen software version 3.4 and ImageJ v1.53t (NIH, Bethesda, MD, USA). Briefly, nuclei were identified based on the DAPI signal and marked as regions of interest (ROI). Subsequently, the mean PAR signal in the identified ROI was quantified in each image and exported for further analysis. For the individual experiments, the mean PAR intensity was averaged for each treatment group and the control was set to 100%. Only images with a minimum of 4 cells were included in the analysis and at least 5 images were assessed per treatment group. The experiments were conducted in at least 3 biological replicates. To derive IC50 concentrations, relative PAR levels of the experiments were transferred to GraphPad Prism 9.0 Software (GraphPad Software Inc., Boston, MA, USA) for a nonlinear regression analysis applying a three-parameter model.

Where “and” joins values, the source holds several entries; their conditions need not be identical. Equal values may be shown once. Read-outs that look alike come from different tables or passages of the source. A value given as a limit tells only on which side of the number the result lay.

T1 sequence (P09874 whole entry): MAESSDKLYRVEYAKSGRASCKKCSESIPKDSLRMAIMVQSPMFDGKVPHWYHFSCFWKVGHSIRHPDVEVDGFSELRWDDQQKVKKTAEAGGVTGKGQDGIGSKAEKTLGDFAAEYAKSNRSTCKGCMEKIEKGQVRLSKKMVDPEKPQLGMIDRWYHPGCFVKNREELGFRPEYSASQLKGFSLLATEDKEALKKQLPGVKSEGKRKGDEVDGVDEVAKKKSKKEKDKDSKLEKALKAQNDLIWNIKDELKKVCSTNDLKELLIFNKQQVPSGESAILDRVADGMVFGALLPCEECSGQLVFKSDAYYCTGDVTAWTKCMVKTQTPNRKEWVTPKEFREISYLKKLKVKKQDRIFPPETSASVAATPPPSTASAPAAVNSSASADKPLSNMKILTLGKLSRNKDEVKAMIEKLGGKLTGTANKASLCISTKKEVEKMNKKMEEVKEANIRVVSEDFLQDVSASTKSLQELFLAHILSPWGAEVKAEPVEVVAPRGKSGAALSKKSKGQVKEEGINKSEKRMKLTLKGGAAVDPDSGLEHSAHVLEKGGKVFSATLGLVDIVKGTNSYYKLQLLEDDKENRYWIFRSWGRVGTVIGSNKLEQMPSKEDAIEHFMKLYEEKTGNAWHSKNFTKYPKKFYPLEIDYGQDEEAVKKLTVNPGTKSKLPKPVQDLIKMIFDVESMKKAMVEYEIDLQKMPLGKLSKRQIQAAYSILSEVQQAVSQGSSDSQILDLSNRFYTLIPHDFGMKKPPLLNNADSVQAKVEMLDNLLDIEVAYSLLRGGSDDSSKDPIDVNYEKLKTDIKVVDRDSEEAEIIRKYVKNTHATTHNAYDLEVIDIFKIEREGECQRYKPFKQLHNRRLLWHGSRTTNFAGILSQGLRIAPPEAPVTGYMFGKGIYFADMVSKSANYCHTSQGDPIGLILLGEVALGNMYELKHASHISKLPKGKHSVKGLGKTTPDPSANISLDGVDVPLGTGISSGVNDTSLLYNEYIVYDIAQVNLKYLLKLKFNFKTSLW
Experimental for DLD-1 ATRs/s cells: (§3) To assess the cytotoxicity of newly developed PARP inhibitors, cells were cultivated in translucent 96-well plates overnight and treated with PARP inhibitors or cytostatic drugs for 72 h. […] Cell viability was assessed by the resazurin reduction assay (RRA) as described previously [41], and fluorescence was measured using a Spark® Multi-well reader (Tecan, Crailsheim, Germany). IC50 values were calculated using GraphPad Prism 9.0 software (GraphPad Software Inc., Boston, MA, USA). To this end, concentrations were transformed into the log scale, plotted against the cell viability and the curve was fitted by nonlinear regression with variable slope, providing the IC50 values.
Experimental for DLD-1 WT cells: as §3
Experimental for HCT116 PARP-1+/+ cells: as §1
Experimental for HCT116 PARP-1−/− cells: as §1

With `O=c1[nH]cc(F)c(=O)[nH]1` [5-FU, 5-fluorouracil], the IC50 was 150 nM with HCT116 PARP-1−/− cells (Homo sapiens, HCT-116, 72 h); 340 nM in the data set on HCT116 BRCA2−/− cells (Homo sapiens, HCT-116, 72 h); 500 nM with HCT116 WT cells (Homo sapiens, HCT-116, 72 h); 220 nM in the data set on DLD-1 ATRs/s cells (Homo sapiens, DLD-1, 72 h); 240 nM with HCT116 PARP-1+/+ cells (Homo sapiens, HCT-116, 72 h); 350 nM in the data set on DLD-1 WT cells (Homo sapiens, DLD-1, 72 h). For the same molecule, the IC50 in data set [1] (Homo sapiens, HCEC) came to 26200 nM. For the same molecule, the “higher sensitivity of HCT116 PARP-1−/− than PARP-1+/+” value (shortened to “higher sensitivity”) in the data set on HCT116 PARP-1−/− cells is on record as “less affected”. In the data set with Caco-2 cells (72 h, RRA), the “IC50-values Caco-2” value was “-”.
On to `CCc1c2c(nc3ccc(OC(=O)N4CCC(N5CCCCC5)CC4)cc13)-c1cc3c(c(=O)n1C2)COC(=O)[C@]3(O)CC` [IT, irinotecan], for which the IC50 amounted to 350 nM in the data set on HCT116 PARP-1−/− cells (Homo sapiens, HCT-116, 72 h); 160 nM in the data set on HCT116 BRCA2−/− cells (Homo sapiens, HCT-116, 72 h); 66500 nM in the data set with Caco-2 cells (Caco-2, 72 h); 1280 nM in the data set with HCT116 WT cells (Homo sapiens, HCT-116, 72 h); 2990 nM with DLD-1 ATRs/s cells (Homo sapiens, DLD-1, 72 h); 930 nM in the data set with HCT116 PARP-1+/+ cells (Homo sapiens, HCT-116, 72 h). Further, the IC50 in the data set with DLD-1 WT cells (Homo sapiens, DLD-1, 72 h) was 4190 nM; in data set [1] (Homo sapiens, HCEC) it was 2950 nM. In the data set on HCT116 PARP-1−/− cells, the “higher sensitivity” value is reported as 2.5–3 fold. Moreover, the “γH2AX, mono-treatment” value in data set [2] was “significant induction of γH2AX”; in [3] it was “slightly higher γH2AX levels”.
For `O=C1[O][Pt]2([NH][C@@H]3CCCC[C@H]3[NH]2)[O]C1=O` [OXA, oxaliplatin], the “higher sensitivity” value in the data set with HCT116 PARP-1−/− cells is 2.5–3 fold. Moreover, the IC50 worked out at 280 nM in the data set on HCT116 PARP-1−/− cells (72 h, RRA); 250 nM in the data set on HCT116 BRCA2−/− cells (72 h, RRA); 1190 nM in the data set with HCT116 WT cells (72 h, RRA); 9080 nM in the data set on DLD-1 ATRs/s cells (72 h, RRA); 710 nM in the data set with HCT116 PARP-1+/+ cells (72 h, RRA); 8770 nM with DLD-1 WT cells (72 h, RRA). Moreover, in data set [1] (RRA), the IC50 stood at 40700 nM.
Take `COC(=O)C1CC(=O)c2cccc3[nH]c(C)c1c23` (centres unmarked) [X17616]: the IC50 on PARP-1 [4] was 9200 nM and 9170 nM.
As for `CNC(=O)C1CC(=O)c2cccc3[nH]c(C)c1c23` (centres unmarked) [X17618, N,2-dimethyl-5-oxo-1,3,4,5-tetrahydrobenzo[cd]indole-3-carboxamide], the “cell viability, monotreatment” value is “Neither X17613 nor X17618 decreased cell viability” in the data set on HCT116 PARP-1−/− cells (HCT116 PARP-1−/−, 72 h, up to 50 µM); “no impact on cell viability at all” in the data set on Caco-2 cells (Caco-2, 72 h, up to 50 µM); “no impact” in the data set on HCT116 WT cells (HCT116 WT, 72 h, up to 50 µM); “no effects” with DLD-1 ATRs/s cells (DLD-1 ATRs/s, 72 h); “Neither X17613 nor X17618 decreased cell viability” in the data set on HCT116 PARP-1+/+ cells (HCT116 PARP-1+/+, 72 h, up to 50 µM); “no effects” in the data set with DLD-1 WT cells (DLD-1 WT, 72 h). In data set [1] (nonmalignant HCEC, up to 50 µM), the “cell viability, monotreatment” value is “no effect on HCEC”. The “cell viability in combination with cytostatics” value with HCT116 PARP-1−/− cells (HCT116 PARP-1−/−, IT 0.5 µM, 5-FU 0.25 µM, OXA 0.5 µM, 72 h, PARPi added 2 h prior) is “did not affect the cytotoxicity of the anticancer drugs”; in the data set with HCT116 PARP-1+/+ cells (HCT116 PARP-1+/+, IT 0.5 µM, 5-FU 0.25 µM, OXA 0.5 µM, 72 h, PARPi added 2 h prior), “did not affect the cytotoxicity of the anticancer drugs”. Moreover, the IC50 in the data set on HCT116 PARP-1−/− cells (Homo sapiens, HCT-116, 72 h) is greater than 50000 nM; at PARP-1 [4] it was 2840 nM; in the data set with HCT116 BRCA2−/− cells (Homo sapiens, HCT-116, 72 h) it was greater than 50000 nM; in the data set on Caco-2 cells (Caco-2, 72 h), greater than 50000 nM; in the data set with HCT116 WT cells (Homo sapiens, HCT-116, 72 h), greater than 50000 nM; in the data set with DLD-1 ATRs/s cells (Homo sapiens, DLD-1, 72 h) it was greater than 50000 nM. In addition, the IC50 in data set [7] is 5.38 nM; in the data set on HCT116 PARP-1+/+ cells (Homo sapiens, HCT-116, 72 h) it was greater than 50000 nM; with DLD-1 WT cells (Homo sapiens, DLD-1, 72 h), greater than 50000 nM; in data set [1] (Homo sapiens, HCEC), greater than 50000 nM. Also, the PARP-1 trapping entry at PARP-1 [5] is “no effects were detected”. Also, the decrease of viability result with HCT116 BRCA2−/− cells (HCT116 BRCA2−/−, highest test concentration of 50 µM, 72 h) is given as “about 25%”. Moreover, in the data set with Caco-2 cells (Caco-2, IT 10 µM, 5-FU 5 µM, OXA 1 µM), the “sensitization towards the anticancer drugs” value is “no sensitization towards the anticancer drugs”. Further, at PARP-1 [6], the “chromatin-bound PARP-1 (PARP-1 trapping)” value is on record as “No enrichment of PARP-1 in the chromatin fraction”. The PAR signal entry in [7] is “significant decrease in the PAR signal”.
For the molecule `Cc1[nH]c2cccc3c2c1C(C(=O)NCc1ccco1)CC3=O` (centres unmarked) [X17620, N-(furan-2-ylmethyl)-2-methyl-5-oxo-1,3,4,5-tetrahydrobenzo[cd]indole-3-carboxamide], the IC50 on PARP-1 [4] was found to be 482 nM. Further, the PAR formation result in [7] is “no effect on PAR formation”.
With `Cc1[nH]c2cccc3c2c1C(C(=O)N1CCOCC1)CC3=O` (centres unmarked) [X17621, 2-methyl-3-(morpholine-4-carbonyl)-3,4-dihydrobenzo[cd]indol-5(1H)-one], on PARP-1 [4], the IC50 was found to be 1630 nM. For the same molecule, in data set [7], the PAR formation entry is “did not entirely inhibit PAR formation”, the IC50 turned out to be 16.7 nM and the PAR signal result is “significant decrease in the PAR signal”.

The values above are taken from publication PMC11506018, “Targeting PARP-1 and DNA Damage Response Defects in Colorectal Cancer Chemotherapy with Established and Novel PARP Inhibitors” (Cancers, 2024).
